Results from a melting point compilation (Tetko et al.; mined from patent text by program, amines drawn as free bases though some values may be those of a salt).

| SMILES | melting point |
| --- | --- |
| CCNC(=O)c1c(Cl)cccc1[Si](C)(C)C | 105 to 107 °C |
| O=S(=O)(c1ccccc1)c1cnc2c(N3CCNCC3)cccc2c1 | 164 °C |
| C=CCOc1cccc2c1C(=O)OC2=O | 115 to 117 °C |
| CCCCCCCCCCCC(CC(O)C(C(=O)OC(C)(C)C)S(=O)c1ccc(C)cc1)OC1CCCCO1 (stereo unspecified) | 97 to 98 °C |
| COC(=O)c1sc(-c2ccc(OC)cc2)cc1NC(C)=O | 148 to 149 °C |
| O=S(=O)(F)CCCCCCCc1ccc(O)cc1 | 47 to 51 °C |
| COC(=O)C(CCC(C)(C)Cl)N(C)S(=O)(=O)NC(=O)OCc1ccccc1 (stereo unspecified) | 77 to 78 °C |
| Cc1cn(S(=O)(=O)c2cccc(C(C)(C)C)c2)c2ccc(C(F)(F)F)cc12 | 90 to 108 °C |
| CNC(=O)Nc1nnc(C(F)(F)F)s1 | 192 to 194 °C |
| CS(=O)(=O)c1ccc(-c2ccccc2CO)cc1 | 123 to 124 °C |
| CC(C)(C)NC(=O)C(O)c1cccc(Cl)c1 (stereo unspecified) | 93 to 99 °C |
| COc1cc(C(C)(C)C)c(OC)cc1I | 80.5 to 82.5 °C |
| O=C(O)CCc1ccc(CCN2CCN(S(=O)(=O)c3ccccc3)CC2)cc1 | 177 to 178 °C |
| CS(=O)CCC(=O)Nc1ccc(OCC(O)CO)cc1 (stereo unspecified) | 139 to 141 °C |
| Cc1cccc2c1CCCCC2=O | 54 to 55 °C |
| C[C@H](c1ccccc1)N1C(=O)N(Cc2ccccc2)[C@@H]2C(=O)OC[C@@H]21 | 163 to 164 °C |
| N=C(NCc1cccc(F)c1)N[N+](=O)[O-] | 177 to 179 °C |
| CC(=O)Cc1ccc(-c2noc3cc(Cl)ccc23)cc1 | 109 to 110 °C |
| O=C1CCCN(C(=O)c2ccc([N+](=O)[O-])cc2Cl)c2ncccc21 | 162 to 164 °C |
| Cc1ncncc1NC(=O)Nc1ccc(-n2nc(C(F)(F)F)cc2C2CC2)c(F)c1 | 198 to 202 °C |
| NC(=O)c1ccnc(NC(=O)N2CCC3(CCc4cc(F)ccc4O3)CC2)c1 | 265 to 267 °C |
| CCn1c(=O)n(O)c(=O)c2c(F)c(F)c(N3CCCC3)c(F)c21 | 223 to 225 °C |
| O=c1[nH][nH]c(=O)n1CCCCl | 168 to 170 °C |
| Cn1c(/C=C/[N+](=O)[O-])cc2cccc(F)c21 | 153 to 156 °C |
| CSCc1cc(N)ccc1O | 166 °C |
| CCC(OC)c1ccc(Cl)c2nc3n(c12)CCCN3c1ccc(Cl)cc1Cl (stereo unspecified) | 136 to 137 °C |

| SMILES | melting point |
| --- | --- |
| COC(=O)C=C(c1ccc(C#N)cc1)n1ccnc1 | 144 to 147 °C |
| COc1nc(C(F)(F)F)cc(=O)n1-c1ccc(Cl)c(OC(C)C)c1 | 55 to 58 °C |
| CCCc1nc2c(N)nc3cc(OCCCNS(=O)(=O)CCc4cccc5ccccc45)ccc3c2n1CC(C)C | 164 to 168 °C |
| O=C(O)c1cc(O)c(-c2ccccc2)c([N+](=O)[O-])c1 | 213 to 215 °C |
| CCn1c(=O)ccc2cnc(Nc3ccc(OCCOC)cc3)nc21 | 169 to 171 °C |
| COc1cc(N)cc(OC)c1-c1ccc(C[C@H](NC(=O)c2c(Cl)cccc2Cl)C(=O)O)cc1 | 221 to 222 °C |
| CN(C)C(=O)c1ccc2c(c1)C(=NNc1ccc(S(N)(=O)=O)cc1)C(=O)N2 | > 230 °C |
| CS(=O)(=O)c1ccc(N2CCC(=O)CC2)cc1 | 183 to 185 °C |
| CC(=Cc1ccc2[nH]ccc2c1)C(=O)O | 207 to 209 °C |
| CC(=O)c1c(C)nc(C)n1-c1cc(C)c2[nH]c(=O)ccc2c1 | 240 to 242 °C |
| O=C(O)c1ccc2cc(O)c(O)cc2c1 | 241 to 250 °C |
| O=C1OC(=Cc2ccccc2C(F)(F)F)C(O)=C1c1ccc(-c2ccccc2)cc1 | 228 to 230 °C |
| Cc1oc(-c2ccccc2)nc1COc1ccc(Cc2nc(-c3ccccc3)c(CCC(=O)O)[nH]2)cc1 | 193 to 196 °C |
| COc1ccc(Nc2ccc(Nc3ncnc4ccsc34)cc2)cc1 | 181 to 186 °C |
| Cc1cccc(NC(=O)c2cc(Cl)cc(C)n2)c1 | 95 °C |
| c1ccc2c(c1)c(-c1nnn[nH]1)cc1nnnn12 | 250 to 251 °C |
| CC(=O)c1ccc(-c2cnc3c(c2)N(Cc2ccccc2)C(=O)CN3)cc1 | 200 °C |
| CNCC#CC1=Cc2ccccc2Sc2ccc(Cl)cc21 | 92 to 94 °C |
| Nc1cccc2c1CNC2 | 81 to 85 °C |
| C=CCc1c(OCC(O)CN2CCN(Cc3ccc(Cl)cc3)CC2)ccc2c(OCc3ccccc3)cc(=O)oc12 (stereo unspecified) | 155 to 157 °C |
| COC(=O)C1=NC2=COc3cc(C)c(Cl)cc3N2C1C(=O)O (stereo unspecified) | 240 to 244 °C |
| CNC(=O)N(O)Cc1cccc(Nc2ccccc2C(=O)OC)c1C | 173 to 175 °C |
| COCOCc1cccc(-c2ccc(C(=O)O)cc2)c1 | 126 to 127 °C |
| COc1ccc(C(C)=O)cc1S(N)(=O)=O | 200 to 201 °C |
| CC1CCCC1(Oc1ccc(CC(=O)c2ccc3c(c2)CCC3)cc1)C(=O)O (stereo unspecified) | 191 to 193 °C |
